Measured values taken from PMC5573408, “Pepcan-12 (RVD-hemopressin) is a CB2 receptor positive allosteric modulator constitutively secreted by adrenals and in liver upon tissue damage” (Scientific Reports, 2017).
Several values for one entry are separate records, joined by “and”; a condition that tells them apart may be missing. Equal entries are not always repeated. No end group written: not given here.

Key:
hCB2 receptor [1] = molecular target: T1, hCB2 receptor (Homo sapiens, UniProt P34972); test: Radioligand binding assays with [3H]CP55,940 and [3H]WIN55,212-2 on CHO-K1-hCB2 membranes; design: expressed in transfected cells; host or cells: CHO-K1; details: for enhancement of [3H]CP55,940 and [3H]WIN55,212-2 receptor binding: 100 nM and 1 μM; for Kb: pKB, ternary complex model
Description: After the incubation time, membrane suspensions were rapidly filtered through a 0.1% polyethyleneimine presoaked 96-well microplate bonded with GF/B glass fiber filters (UniFilter-96 GF/B, PerkinElmer Life Sciences) under vacuum and washed 12 times with 150 μL of ice-cold binding buffer Filters were added with 40 μL of MicroScint20 scintillation liquid, and radioactivity was measured with the Trilux top counter (PerkinElmer Life Sciences). Data were collected from 3–10 independent experiments, each performed in triplicate, and the nonspecific binding was subtracted. The results are expressed as a percentage of vehicle-treated samples.

hCB2 receptor [2] = molecular target: T1, hCB2 receptor; test: Equilibrium binding / displacement of fluorescent pepcan-F4 on CHO-K1-hCB2 cells; design: expressed in transfected cells; host or cells: CHO-K1; details: for Ki: 100 nM pepcan-F4
Description: The equilibrium dissociation constant (Kd value) of the fluorescein-labeled pepcan-12 derivative pepcan-F4 was determined using CHO-K1-hCB2 cells as previously described. Equilibrium saturation binding was determined experimentally, and maximal specific binding (saturation) was reached already at 5 min at 37 °C. Different concentrations of pepcans and 100 nM pepcan-F4 were incubated together with […] suspended in 200 μL of binding buffer in silanized plastic tubes, under shaking for 60 min at 37 °C. After centrifugation at 4 °C and washing with ice-cold binding buffer, the cells were resuspended in ice-cold PBS and transferred into 96-well black plates, where the fluorescence intensities were measured using a Tecan Farcyte reader (485 nm excitation/535 nm emission). The specific binding was determined after washing and subtracting the nonspecific fluorescence calculated in parallel experiments carried out in non-transfected CHO cells.

hCB2 receptor [3] = molecular target: T1, hCB2 receptor; test: [35S]GTPγS assay on hCB2 membranes; format: biochemical; design: expressed in transfected cells; host or cells: CHO-K1; details: for EC50 / [35S]GTPγS assay Max. Effect: 2-AG, mean (95% CI)
Description: Assays were performed as previously described. Clean membranes expressing hCB2 were diluted in silanized plastic tubes with GTPγS binding buffer (50 mM Tris-HCl, 3 mM MgCl2, 0.2 mM EGTA and 100 mM NaCl at pH 7.4 supplemented with 0.5% fatty acid-free BSA) in the presence of 10 μM of GDP and 0.1 nM of [^35S]GTPγS. The mixture was kept on ice until the binding reaction was started by adding the vehicle or compounds. Non-specific binding was measured in presence of 10 μM GTPγS. The tubes were incubated at 30 °C for 90 min under shaking and then put on ice to stop the reaction. An aliquot (185 μL) of the reaction mixture was rapidly filtered through a 96-well microplate bonded with GF/B glass fibre filters previously pre-soaked with ice-cold washing buffer (50 mM of Tris-HCl pH 7.4 plus 0.1% fatty acid-free BSA). The filters were washed six times with 180 µL of washing buffer under vacuum. The radioactivity was measured after the addition of 45 µL of MicroScint20 scintillation cocktail. Specific binding was calculated by subtracting the residual radioactivity signal obtained in presence of an excess of GTPγS and the results were expressed as % of vehicle control.

hCB2 receptor [4] = molecular target: T1, hCB2 receptor; test: cAMP assay in CHO-K1-hCB2 cells (GloSensor); format: cell-based; design: expressed in transfected cells; host or cells: CHO-K1; details: for EC50: 2-AG, mean (95% CI)
Description: cAMP assays were performed in CHO-K1-hCB2 stably transfected with the pGloSensorTM 22-F plasmid (Promega) as previously described. Briefly, cells were seeded in 96-well plate and after attachment the medium was replaced by 40 µL of equilibration medium (GloSensor™ cAMP Reagent diluted in 5% v v^−1 of CO2-independent medium plus 10% FBS). The plates were incubated for 2 h at RT in the dark. […] Chemiluminescence was monitored continuously starting from immediately after the addition and for 30 min (keeping the plate at RT and in the dark). Basal levels of chemiluminescence (cells plus IBMX and vehicle without forskolin) were subtracted to the measured values. Results were normalized by subtracting the residual cAMP production and expressed as % of vehicle control.

hCB2 receptor [5] = molecular target: T1, hCB2 receptor; test: Dissociation kinetics of [3H]CP55,940 by isotopic dilution; format: binding; design: expressed in transfected cells; details: 1 μM CP55,940 added to bound [3H]CP55,940 (0.5 nM), 300 nM pepcan-12
Description: Dissociation kinetics experiments were performed as described before. […] […] […] After the incubation time, membrane suspensions were rapidly filtered through a 0.1% polyethyleneimine presoaked 96-well microplate bonded with GF/B glass fiber filters and washed as described above.

T1 sequence (P34972 whole entry): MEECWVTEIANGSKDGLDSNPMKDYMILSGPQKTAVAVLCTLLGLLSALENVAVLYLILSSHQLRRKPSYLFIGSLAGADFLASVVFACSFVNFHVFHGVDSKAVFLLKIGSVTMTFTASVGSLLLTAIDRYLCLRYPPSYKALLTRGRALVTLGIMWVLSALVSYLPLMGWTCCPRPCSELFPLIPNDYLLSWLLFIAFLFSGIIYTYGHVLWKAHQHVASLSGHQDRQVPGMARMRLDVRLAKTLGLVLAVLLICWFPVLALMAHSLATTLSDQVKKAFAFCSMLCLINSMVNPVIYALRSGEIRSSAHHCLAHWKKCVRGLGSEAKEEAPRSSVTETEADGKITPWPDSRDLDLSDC

SALSDLHAHKLRVDPVNFKLLSH [Pepcan-23, putative precursor of pepcan-12]
enhancement of [3H]CP55,940 and [3H]WIN55,212-2 receptor binding (hCB2 receptor [1]): did not exhibit any receptor interaction

SDLHAHKLRVDPVNFKLLSH [Pepcan-20]
Ki (hCB2 receptor [2]): > 10000 nM

KLRVDPVNFKLLSH [Pepcan-14]
effect on [35S]GTPγS binding in absence of agonist (hCB2 receptor [3]; no orthosteric ligand): Lack of effects | enhancement of [3H]CP55,940 and [3H]WIN55,212-2 receptor binding (hCB2 receptor [1]): weaker yet still significant effects | effect on cAMP levels in absence of agonist (hCB2 receptor [4]; no orthosteric ligand): Lack of effects

pepcan-F4: C-terminal fluorescence-labeled (fluorescein) pepcan-12 conjugate (RVDPVNFKLLSH; synthetic pepcan-12 (alpha-hemoglobin fragment)
Kd (hCB2 receptor [2]; specific saturation curve, read-out: apparent Kd for hCB2 receptors): 123 ± 41.2 nM

RVDPVNFKLLSH [Pepcan-12]
Kb (hCB2 receptor [1]; [3H]CP55,940 bound): 58.9 nM | Kb (hCB2 receptor [1]; [3H]WIN55,212-2 bound): 53.7 nM | Ki (hCB2 receptor [2]): 44.7 nM and ~50 nM | Half-life (fast) (hCB2 receptor [5]): 0.844 (0.703 to 1.057) min | Half-life (slow) (hCB2 receptor [5]): 49.90 (29.3 to 169.3) min

HAHKLRVDPVNFKLLSH [Pepcan-17]
Ki (hCB2 receptor [2]): 183 ± 39.4 nM

CCCCC/C=C\C/C=C\C/C=C\C/C=C\CCCC(=O)OC(CO)CO [Pepcan 2-AG, 2-arachidonoyl glycerol]
EC50 (hCB2 receptor [3]; pepcan-12 0 nM): 95.8 nM | [35S]GTPγS assay Max. Effect (hCB2 receptor [3]; pepcan-12 0 nM): 235 (220–251) % of crtl | EC50 (hCB2 receptor [3]; pepcan-12 10 nM): 64.9 nM | [35S]GTPγS assay Max. Effect (hCB2 receptor [3]; pepcan-12 10 nM): 238 (221–251) % of crtl | EC50 (hCB2 receptor [3]; pepcan-12 30 nM): 40.9 nM | [35S]GTPγS assay Max. Effect (hCB2 receptor [3]; pepcan-12 30 nM): 254 (237–272) % of crtl | EC50 (hCB2 receptor [3]; pepcan-12 100 nM): 35.4 nM | [35S]GTPγS assay Max. Effect (hCB2 receptor [3]; pepcan-12 100 nM): 291 (265–318) % of crtl | EC50 (hCB2 receptor [4]; pepcan-12 0 nM): 92.1 nM | EC50 (hCB2 receptor [4]; pepcan-12 10 nM): 102 nM | EC50 (hCB2 receptor [4]; pepcan-12 30 nM): 25.1 nM | EC50 (hCB2 receptor [4]; pepcan-12 100 nM): 12.4 nM

HKLRVDPVNFKLLSH [Pepcan-15]
Ki (hCB2 receptor [2]): 77.8 ± 8.2 nM
